Patent US20170290821A1 (priority 2014, published 2017)
Structures can show the parent of a compound that is named as a salt. Where two headings read alike, the source gives them in different places.

Test system: influenza virus A/WSN RG#1-1 strains
Test: microbe, parasite or virus in culture
Format: cell-based
Settings: for IC50: unidentified influenza virus, WSN, read-out: IC50 (50% virus replication inhibitory concentration)

Structure (SMILES)	IC50 (A549, 48 h)	IC50 (HEK293, 48 h)	IC50 (50% virus replication inhibitory concentration)	further results
O=C(Nc1c[nH]nc1-c1nc2cc(CN3CCOCC3)ccc2[nH]1)NC1CC1 [Compound J7, 1-cyclopropyl-3-(3-(5-(morpholinomethyl)-1H-benzo[d]imidazol-2-yl)-1H-pyrazol-4-yl) urea]	3.16 µM			
CN1C/C=C/CCOc2cccc(c2)-c2ccnc(n2)Nc2cccc(c2)C1 [Compound J23, 20-oxa-5,7,14,27-tetraazatetracyclo[19.3.1.12,6.18, 12]heptacosa-1(25),2,4,6(27),8,10,12(26),16,21,23-decane,14-methyl-]	0.0316 µM	0.0316 µM		IC50 (MDCK, 48 h): 0.0316 µM
COc1cc2ncnc(Nc3ccc(O)cc3)c2cc1OC [Compound J20, 4-[(6,7-dimethoxy-4-quinazolinyl)amino]-phenol]		31.6 µM		
CC(C)N(CCC(=O)c1ccc2ccccc2c1)Cc1ccccc1 [Compound J15, 1-propanone, 3-[(1-methylethyl)(phenylmethyl)amino]-1-(2-naphthalenyl)-, hydrochloride (1:1)]		0.316 µM		
N#C/C(=C\c1ccc(O)c(O)c1)C(=O)NCc1ccccc1 [Compound J4, (E)-N-benzyl-2-cyano-3-(3,4-dihydroxyphenyl)acrylamide]	31.6 µM			
Fc1cc(-c2cccc3ncc(-c4cnn(C5CCNCC5)c4)nc23)cc(F)c1CN1CCOCC1 [Compound J13, 8-(3,5-difluoro-4-(morpholinomethyl)phenyl)-2-(1-(piperidin-4-yl)-1H-pyrazol-4-yl)qui noxaline]			3.17 log10, nM	
Cl.Cl.Fc1cc(-c2cccc3ncc(-c4cnn(C5CCNCC5)c4)nc23)cc(F)c1CN1CCOCC1 [Compound J21, 4-[[2,6-difluoro-4-[3-(1-piperidin-4-ylpyrazol-4-yl)quinoxalin-5-yl]phenyl]methyl]morpholine; dihydrochloride]			3.50 log10, nM	
CCC[C@H](NC(=O)/C(C#N)=C/c1cccc(Br)n1)c1ccccc1 [Compound J25, (2E)-3-(6-bromo-2-pyridinyl)-2-cyano-N-[1S-phenylbutyl]-2-propenamide]			2.50 log10, nM	
CN1CCN(c2cccc(Nc3nc4c(-c5ccc(S(C)(=O)=O)cc5)cccn4n3)c2)CC1 [Compound J11]			3.50 log10, nM	
O=C(Nc1nc2cccc(-c3ccc(CN4CCS(=O)(=O)CC4)cc3)n2n1)C1CC1 [Compound J19, N-[5-[4-[(1,1-dioxido-4-thiomorpholinyl)methyl]phenyl][1,2,4]triazolo[1,5-a]pyridin-2-yl]cyclopropanccarboxamidc]	31.6 µM	31.6 µM		IC50 (MDCK, 48 h): 31.6 µM
N#CCNC(=O)c1ccc(-c2ccnc(Nc3ccc(N4CCOCC4)cc3)n2)cc1 [Compound J8, N-(cyanomethyl)-4-(2-(4-morpholinophenylamino)pyrimidin-4-yl)benzamide]		31.6 µM		
